{
  "source": "ChEMBL document CHEMBL3124825",
  "about": "“Benzimidazole: an emerging scaffold for analgesic and anti-inflammatory agents” (Eur J Med Chem, 2014)",
  "key": {"Homo sapiens": {"species_on_record": "Homo sapiens", "test": "Selectivity ratio of Ki for human CB1 receptor to Ki for human CB2 receptor"}, "Cannabinoid receptor 1": {"molecular_target": "Cannabinoid receptor 1 (Homo sapiens, UniProt P21554)", "sequence (P21554 whole entry)": "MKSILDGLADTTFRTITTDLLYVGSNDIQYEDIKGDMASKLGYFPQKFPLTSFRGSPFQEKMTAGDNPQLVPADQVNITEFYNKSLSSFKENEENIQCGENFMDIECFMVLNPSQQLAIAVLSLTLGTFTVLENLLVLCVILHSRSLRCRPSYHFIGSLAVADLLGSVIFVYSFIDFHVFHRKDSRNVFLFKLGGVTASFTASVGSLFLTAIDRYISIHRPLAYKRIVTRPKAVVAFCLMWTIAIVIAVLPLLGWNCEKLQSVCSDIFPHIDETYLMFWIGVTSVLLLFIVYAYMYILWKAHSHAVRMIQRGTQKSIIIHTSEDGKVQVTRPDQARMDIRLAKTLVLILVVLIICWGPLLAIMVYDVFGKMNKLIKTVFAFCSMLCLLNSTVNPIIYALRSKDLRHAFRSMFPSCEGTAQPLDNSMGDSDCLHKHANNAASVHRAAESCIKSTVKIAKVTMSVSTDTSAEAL", "test": "Agonist activity at human CB1 receptor"}, "Cannabinoid receptor 2": {"molecular_target": "Cannabinoid receptor 2 (Homo sapiens, UniProt P34972)", "sequence (P34972 whole entry)": "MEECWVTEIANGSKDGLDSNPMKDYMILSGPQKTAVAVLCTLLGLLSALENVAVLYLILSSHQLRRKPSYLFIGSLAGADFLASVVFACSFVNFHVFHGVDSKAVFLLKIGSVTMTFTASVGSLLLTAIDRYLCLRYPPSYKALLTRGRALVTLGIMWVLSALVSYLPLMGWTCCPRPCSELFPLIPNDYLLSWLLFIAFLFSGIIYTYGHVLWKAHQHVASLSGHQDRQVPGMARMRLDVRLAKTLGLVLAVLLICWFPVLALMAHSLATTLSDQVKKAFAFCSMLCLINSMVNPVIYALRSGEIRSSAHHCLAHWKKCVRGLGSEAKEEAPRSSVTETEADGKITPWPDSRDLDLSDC", "test": "Agonist activity at human CB2 receptor"}},
  "data": [
    {"smiles": "CCOc1ccc(Cc2nc3cc(C(=O)N(C)CC)ccc3n2CCC(C)C)cc1", "values": [
      {"measurement": "Ratio Ki", "setting": "Homo sapiens", "value": 970},
      {"measurement": "Ki", "setting": "Cannabinoid receptor 1", "value": 3.17, "unit": "µM"},
      {"measurement": "Ki", "setting": "Cannabinoid receptor 2", "value": 0.0033, "unit": "µM"}
    ]}
  ]
}
